From ChEMBL document CHEMBL3992552, “Mechanisms of action and structure-activity relationships of cytotoxic flavokawain derivatives” (Bioorg Med Chem, 2017)
Calls of active or inactive are those of the source. No cut-off for these calls is given here.

Test system: PC-3
Test: Cell cycle arrest in human PC3 cells assessed as accumulation at M phase by Hoechst staining based fluorescence assay
Type: functional
Settings: not given

| SMILES | Activity |
| --- | --- |
| COc1cc(OC)c(C(=O)/C=C/c2ccc(Br)cc2)c(OC)c1 | Active |

Test system: HCT-116
Test: Cytotoxicity against human HCT116 cells assessed as cell survival at 50 uM after 48 hrs by Hoechst 33342 staining based assay relative to control
Type: functional
Settings: HCT-116, 48 h, read-out: Survival

| SMILES | viability at 50 µM [%] |
| --- | --- |
| COc1cc(OC)c(C(=O)/C=C/c2ccc(Br)cc2)c(OC)c1 | 0 |

Test system: MCF7
Test: Induction of apoptosis in human MCF7 cells harboring wild-type p53 assessed as increase in late apoptosis at 2 times IC50 after 24 hrs by YoPro/propidium iodide/Hoechst staining based assay
Type: functional, cell-based
Settings: not given

| SMILES | Activity |
| --- | --- |
| COc1cc(OC)c(C(=O)/C=C/c2ccc(Br)cc2)c(OC)c1 | Active |

Test system: Caco-2
Test: Cell cycle arrest in human Caco2 cells assessed as accumulation at S phase at 25 uM measured after 48 hrs by Hoechst/BrdU staining based fluorescence assay (reference value: […])
Type: functional
Settings: not given

| SMILES | Activity [%] |
| --- | --- |
| COc1cc(OC)c(C(=O)/C=C/c2ccc(Br)cc2)c(OC)c1 | 1.9 |

Test system: HCT-116
Test: Cell cycle arrest in human HCT116 cells harboring wild-type p53 assessed as accumulation at S phase at 25 uM measured after 48 hrs by Hoechst/BrdU staining based fluorescence assay (reference value: 68.4%)
Type: functional
Settings: not given

| SMILES | Activity [%] |
| --- | --- |
| COc1cc(OC)c(C(=O)/C=C/c2ccc(Br)cc2)c(OC)c1 | 68 |

Test system: PC-3
Test: Induction of apoptosis in human PC3 cells harboring p53 mutant assessed as upregulation of cyclinB1 after 48 hrs by Hoechst staining based assay
Type: functional, cell-based
Settings: not given

| SMILES | Activity |
| --- | --- |
| COc1cc(OC)c(C(=O)/C=C/c2ccc(Br)cc2)c(OC)c1 | Active |

Test system: NCI-H727
Test: Cell cycle arrest in human NCI-H727 cells harboring p53 mutant assessed as accumulation at S phase at 10 uM measured after 48 hrs by Hoechst/BrdU staining based fluorescence assay (reference value: 40.3%)
Type: functional
Settings: not given

| SMILES | Activity [%] |
| --- | --- |
| COc1cc(OC)c(C(=O)/C=C/c2ccc(Br)cc2)c(OC)c1 | 39 |

Test system: HaCaT
Test: Cytotoxicity against human HaCaT cells assessed as cell survival at 50 uM after 48 hrs by Hoechst 33342 staining based assay relative to control
Type: functional
Settings: read-out: Survival

| SMILES | viability at 50 µM [%] |
| --- | --- |
| COc1cc(OC)c(C(=O)/C=C/c2ccc(Br)cc2)c(OC)c1 | 6 |

Test system: PC-3
Test: Induction of apoptosis in human PC3 cells harboring p53 mutant assessed as increase in late apoptosis at 2 times IC50 after 48 hrs by YoPro/propidium iodide/Hoechst staining based assay
Type: functional, cell-based
Settings: not given

| SMILES | Activity |
| --- | --- |
| COc1cc(OC)c(C(=O)/C=C/c2ccc(Br)cc2)c(OC)c1 | Active |

Test system: not listed separately
Test: Selectivity index, ratio of IC50 for human fibroblasts to IC50 for human Caco2 cells
Settings: not given

| SMILES | Ratio IC50 |
| --- | --- |
| COc1cc(OC)c(C(=O)/C=C/c2ccc(Br)cc2)c(OC)c1 | >7.4 |

Test system: Huh-7
Test: Cell cycle arrest in human HuH7 cells assessed as mitotic index at 10 uM measured after 48 hrs by Hoechst staining based fluorescence assay (reference value: 2.2)
Type: functional
Settings: not given

| SMILES | Activity_index |
| --- | --- |
| COc1cc(OC)c(C(=O)/C=C/c2ccc(Br)cc2)c(OC)c1 | 10.4 |

Test system: NCI-H727
Test: Cell cycle arrest in human NCI-H727 cells harboring p53 mutant assessed as accumulation at S phase at 25 uM measured after 48 hrs by Hoechst/BrdU staining based fluorescence assay (reference value: 40.3%)
Type: functional
Settings: not given

| SMILES | Activity [%] |
| --- | --- |
| COc1cc(OC)c(C(=O)/C=C/c2ccc(Br)cc2)c(OC)c1 | 6 |

Test system: MDA-MB-231
Test: Cytotoxicity against human MDA-MB-231 cells assessed as cell viability after 48 hrs by Hoechst 33342 staining based assay
Type: functional
Settings: MDA-MB-231, 48 h

| SMILES | IC50 [µM] |
| --- | --- |
| COc1cc(OC)c(C(=O)/C=C/c2ccc(Br)cc2)c(OC)c1 | 11.1 |

Test system: MDA-MB-231
Test: Cytotoxicity against human MDA-MB-231 cells assessed as cell survival at 50 uM after 48 hrs by Hoechst 33342 staining based assay relative to control
Type: functional
Settings: MDA-MB-231, 48 h, read-out: Survival

| SMILES | viability at 50 µM [%] |
| --- | --- |
| COc1cc(OC)c(C(=O)/C=C/c2ccc(Br)cc2)c(OC)c1 | 6 |

Test system: not listed separately
Test: Selectivity index, ratio of IC50 for human fibroblasts to IC50 for human MDA-MB-231 cells
Settings: not given

| SMILES | Ratio IC50 |
| --- | --- |
| COc1cc(OC)c(C(=O)/C=C/c2ccc(Br)cc2)c(OC)c1 | >4.5 |

Test system: not listed separately
Test: Selectivity index, ratio of IC50 for human fibroblasts to IC50 for human HCT116 cells
Settings: not given

| SMILES | Ratio IC50 |
| --- | --- |
| COc1cc(OC)c(C(=O)/C=C/c2ccc(Br)cc2)c(OC)c1 | >8.1 |

Test system: MDA-MB-231
Test: Induction of apoptosis in human MDA-MB-231 cells harboring p53 mutant assessed as increase in late apoptosis at 2 times IC50 after 24 hrs by YoPro/propidium iodide/Hoechst staining based assay
Type: functional, cell-based
Settings: not given

| SMILES | Activity |
| --- | --- |
| COc1cc(OC)c(C(=O)/C=C/c2ccc(Br)cc2)c(OC)c1 | Active |

Test system: Huh-7
Test: Cell cycle arrest in human HuH7 cells assessed as mitotic index at 25 uM measured after 48 hrs by Hoechst staining based fluorescence assay (reference value: 2.2)
Type: functional
Settings: not given

| SMILES | Activity_index |
| --- | --- |
| COc1cc(OC)c(C(=O)/C=C/c2ccc(Br)cc2)c(OC)c1 | 0.1 |

Test system: MDA-MB-231
Test: Cell cycle arrest in human MDA-MB-231 cells harboring p53 mutant assessed as mitotic index at 10 uM measured after 48 hrs by Hoechst staining based fluorescence assay (reference value: 2.1)
Type: functional
Settings: not given

| SMILES | Activity_index |
| --- | --- |
| COc1cc(OC)c(C(=O)/C=C/c2ccc(Br)cc2)c(OC)c1 | 15 |

Test system: Caco-2
Test: Cytotoxicity against human Caco2 cells assessed as cell survival at 50 uM after 48 hrs by Hoechst 33342 staining based assay relative to control
Type: functional
Settings: Caco-2, 48 h, read-out: Survival

| SMILES | viability at 50 µM [%] |
| --- | --- |
| COc1cc(OC)c(C(=O)/C=C/c2ccc(Br)cc2)c(OC)c1 | 0 |

Test system: not listed separately
Test: Selectivity index, ratio of IC50 for human fibroblasts to IC50 for human MCF7 cells
Settings: not given

| SMILES | Ratio IC50 |
| --- | --- |
| COc1cc(OC)c(C(=O)/C=C/c2ccc(Br)cc2)c(OC)c1 | >5.3 |

Test system: HaCaT
Test: Cell cycle arrest in human HaCaT cells harboring […] p53 assessed as mitotic index at 10 uM measured after 48 hrs by Hoechst staining based fluorescence assay (reference value: 2.6)
Type: functional
Settings: not given

| SMILES | Activity_index |
| --- | --- |
| COc1cc(OC)c(C(=O)/C=C/c2ccc(Br)cc2)c(OC)c1 | 19 |

Test system: RL
Test: Cytotoxicity against human RL assessed as cell viability after 48 hrs by Hoechst 33342 staining based assay
Type: functional
Settings: not given

| SMILES | IC50 [µM] |
| --- | --- |
| COc1cc(OC)c(C(=O)/C=C/c2ccc(Br)cc2)c(OC)c1 | 8.3 |

Test system: HCT-116
Test: Cytotoxicity against human HCT116 cells assessed as cell viability after 48 hrs by Hoechst 33342 staining based assay
Type: functional
Settings: HCT-116, 48 h

| SMILES | IC50 [µM] |
| --- | --- |
| COc1cc(OC)c(C(=O)/C=C/c2ccc(Br)cc2)c(OC)c1 | 6.2 |

Test system: MDA-MB-231
Test: Cell cycle arrest in human MDA-MB-231 cells harboring p53 mutant assessed as accumulation at S phase at 10 uM measured after 48 hrs by Hoechst/BrdU staining based fluorescence assay (reference value: 42.2%)
Type: functional
Settings: not given

| SMILES | Activity [%] |
| --- | --- |
| COc1cc(OC)c(C(=O)/C=C/c2ccc(Br)cc2)c(OC)c1 | 42 |

Test system: PC-3
Test: Cell cycle arrest in human PC3 cells harboring p53 mutant assessed as accumulation at S phase at 10 uM measured after 48 hrs by Hoechst/BrdU staining based fluorescence assay (reference value: 40.8%)
Type: functional
Settings: not given

| SMILES | Activity [%] |
| --- | --- |
| COc1cc(OC)c(C(=O)/C=C/c2ccc(Br)cc2)c(OC)c1 | 35 |

Test system: HaCaT
Test: Cell cycle arrest in human HaCaT cells harboring […] p53 assessed as accumulation at S phase at 25 uM measured after 48 hrs by Hoechst/BrdU staining based fluorescence assay (reference value: 52.3%)
Type: functional
Settings: not given

| SMILES | Activity [%] |
| --- | --- |
| COc1cc(OC)c(C(=O)/C=C/c2ccc(Br)cc2)c(OC)c1 | 0.3 |

Test system: MDA-MB-231
Test: Cell cycle arrest in human MDA-MB-231 cells harboring p53 mutant assessed as accumulation at S phase at 25 uM measured after 48 hrs by Hoechst/BrdU staining based fluorescence assay (reference value: 42.2%)
Type: functional
Settings: not given

| SMILES | Activity [%] |
| --- | --- |
| COc1cc(OC)c(C(=O)/C=C/c2ccc(Br)cc2)c(OC)c1 | 44 |

Test system: not listed separately
Test: Selectivity index, ratio of IC50 for human fibroblasts to IC50 for human HuH7 cells
Settings: not given

| SMILES | Ratio IC50 |
| --- | --- |
| COc1cc(OC)c(C(=O)/C=C/c2ccc(Br)cc2)c(OC)c1 | >3.6 |

Test system: HCT-116
Test: Cell cycle arrest in human HCT116 cells harboring wild-type p53 assessed as mitotic index at 25 uM measured after 48 hrs by Hoechst staining based fluorescence assay (reference value: 2.3)
Type: functional
Settings: not given

| SMILES | Activity_index |
| --- | --- |
| COc1cc(OC)c(C(=O)/C=C/c2ccc(Br)cc2)c(OC)c1 | 0.6 |

Test system: HaCaT
Test: Cell cycle arrest in human HaCaT cells harboring […] p53 assessed as accumulation at S phase at 10 uM measured after 48 hrs by Hoechst/BrdU staining based fluorescence assay (reference value: 52.3%)
Type: functional
Settings: not given

| SMILES | Activity [%] |
| --- | --- |
| COc1cc(OC)c(C(=O)/C=C/c2ccc(Br)cc2)c(OC)c1 | 24 |

Test system: MCF7
Test: Induction of apoptosis in human MCF7 cells harboring wild-type p53 assessed as increase in early apoptosis at 2 times IC50 after 24 hrs by YoPro/propidium iodide/Hoechst staining based assay
Type: functional, cell-based
Settings: not given

| SMILES | Activity |
| --- | --- |
| COc1cc(OC)c(C(=O)/C=C/c2ccc(Br)cc2)c(OC)c1 | Active |

Test system: not listed separately
Test: Selectivity index, ratio of IC50 for human fibroblasts to IC50 for human RL cells
Settings: not given

| SMILES | Ratio IC50 |
| --- | --- |
| COc1cc(OC)c(C(=O)/C=C/c2ccc(Br)cc2)c(OC)c1 | >6 |

Test system: PC-3
Test: Cell cycle arrest in human PC3 cells harboring p53 mutant assessed as accumulation at S phase at 25 uM measured after 48 hrs by Hoechst/BrdU staining based fluorescence assay (reference value: 40.8%)
Type: functional
Settings: not given

| SMILES | Activity [%] |
| --- | --- |
| COc1cc(OC)c(C(=O)/C=C/c2ccc(Br)cc2)c(OC)c1 | 0.4 |

Test system: MDA-MB-231
Test: Cell cycle arrest in human MDA-MB-231 cells assessed as accumulation at M phase by Hoechst staining based fluorescence assay
Type: functional
Settings: not given

| SMILES | Activity |
| --- | --- |
| COc1cc(OC)c(C(=O)/C=C/c2ccc(Br)cc2)c(OC)c1 | Active |

Test system: HCT-116
Test: Induction of apoptosis in human HCT116 cells harboring wild-type p53 assessed as upregulation of p21 measured after 48 hrs by Hoechst staining based fluorescence assay
Type: functional, cell-based
Settings: not given

| SMILES | Activity |
| --- | --- |
| COc1cc(OC)c(C(=O)/C=C/c2ccc(Br)cc2)c(OC)c1 | Active |

Test system: HaCaT
Test: Cytotoxicity against human HaCaT cells assessed as cell viability after 48 hrs by Hoechst 33342 staining based assay
Type: functional
Settings: not given

| SMILES | IC50 [µM] |
| --- | --- |
| COc1cc(OC)c(C(=O)/C=C/c2ccc(Br)cc2)c(OC)c1 | 9 |

Test system: NCI-H727
Test: Cytotoxicity against human NCI-H727 cells assessed as cell survival at 50 uM after 48 hrs by Hoechst 33342 staining based assay relative to control
Type: functional
Settings: NCI-H727, 48 h, read-out: Survival

| SMILES | viability at 50 µM [%] |
| --- | --- |
| COc1cc(OC)c(C(=O)/C=C/c2ccc(Br)cc2)c(OC)c1 | 2 |
